According to patent US20120277161A1, “INHIBITION OF MULTIPLE CELL ACTIVATION PATHWAYS” (INTER-K PTY LIMITED, priority 2009, published 2012):
pIC50: −log10 of the molar value.

Assays:
c-SRC (h) = c-SRC (h) (Homo sapiens, UniProt P12931); experiment: c-Src kinase activity assay (cell-free, 33P-ATP); type: biochemical
Description: (§1) In a final reaction volume of 25 μL, c-SRC (h) (5-10 mU) is incubated with 8 mM MOPS pH 7.0, 0.2 mM EDTA, 250 μM KVEKIGEGTYGVVYK (SEQ ID No. 19) (Cdc2 peptide), 10 mM MgAcetate and [γ-33P-ATP] (specific activity approx. 500 cpm/pmol, concentration as required). The reaction is initiated by the addition of the MgATP mix. After incubation for 40 minutes at room temperature, the reaction is stopped by the addition of 5 μL of a 3% phosphoric acid solution. 10 μL of the reaction is then spotted onto a P30 filtermat and washed three times for 5 minutes in 75 mM phosphoric acid and once in methanol prior to drying and scintillation counting.

human ERK2 = human ERK2 (Homo sapiens, UniProt P28482); experiment: ERK2 kinase activity assay (cell-free); type: biochemical
Sequence of human ERK2 (P28482 whole entry): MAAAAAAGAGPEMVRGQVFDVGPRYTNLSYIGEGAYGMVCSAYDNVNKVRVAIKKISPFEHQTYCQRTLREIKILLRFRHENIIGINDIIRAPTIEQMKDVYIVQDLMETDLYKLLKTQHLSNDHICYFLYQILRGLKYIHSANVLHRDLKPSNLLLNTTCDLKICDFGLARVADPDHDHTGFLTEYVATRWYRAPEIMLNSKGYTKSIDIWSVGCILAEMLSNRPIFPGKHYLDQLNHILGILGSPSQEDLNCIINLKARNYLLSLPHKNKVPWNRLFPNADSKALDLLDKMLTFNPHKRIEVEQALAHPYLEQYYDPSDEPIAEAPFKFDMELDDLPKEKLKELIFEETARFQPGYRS
Description: as §1, with “human ERK2” for “c-SRC (h)”, “25” for “8”, “Tris” for “MOPS”, “7.5, 0.02” for “7.0, 0.2”, “EGTA, 0.33 mg/mL myelin basic protein,” for “EDTA, 250 μM KVEKIGEGTYGVVYK (SEQ ID No. 19) (Cdc2 peptide),”

PI3K beta = PI3K beta (Homo sapiens, UniProt P42338); experiment: PI3K HTRF activity assay; type: biochemical
Sequence of PI3K beta (P42338 whole entry, species assumed, the tested form may be a part): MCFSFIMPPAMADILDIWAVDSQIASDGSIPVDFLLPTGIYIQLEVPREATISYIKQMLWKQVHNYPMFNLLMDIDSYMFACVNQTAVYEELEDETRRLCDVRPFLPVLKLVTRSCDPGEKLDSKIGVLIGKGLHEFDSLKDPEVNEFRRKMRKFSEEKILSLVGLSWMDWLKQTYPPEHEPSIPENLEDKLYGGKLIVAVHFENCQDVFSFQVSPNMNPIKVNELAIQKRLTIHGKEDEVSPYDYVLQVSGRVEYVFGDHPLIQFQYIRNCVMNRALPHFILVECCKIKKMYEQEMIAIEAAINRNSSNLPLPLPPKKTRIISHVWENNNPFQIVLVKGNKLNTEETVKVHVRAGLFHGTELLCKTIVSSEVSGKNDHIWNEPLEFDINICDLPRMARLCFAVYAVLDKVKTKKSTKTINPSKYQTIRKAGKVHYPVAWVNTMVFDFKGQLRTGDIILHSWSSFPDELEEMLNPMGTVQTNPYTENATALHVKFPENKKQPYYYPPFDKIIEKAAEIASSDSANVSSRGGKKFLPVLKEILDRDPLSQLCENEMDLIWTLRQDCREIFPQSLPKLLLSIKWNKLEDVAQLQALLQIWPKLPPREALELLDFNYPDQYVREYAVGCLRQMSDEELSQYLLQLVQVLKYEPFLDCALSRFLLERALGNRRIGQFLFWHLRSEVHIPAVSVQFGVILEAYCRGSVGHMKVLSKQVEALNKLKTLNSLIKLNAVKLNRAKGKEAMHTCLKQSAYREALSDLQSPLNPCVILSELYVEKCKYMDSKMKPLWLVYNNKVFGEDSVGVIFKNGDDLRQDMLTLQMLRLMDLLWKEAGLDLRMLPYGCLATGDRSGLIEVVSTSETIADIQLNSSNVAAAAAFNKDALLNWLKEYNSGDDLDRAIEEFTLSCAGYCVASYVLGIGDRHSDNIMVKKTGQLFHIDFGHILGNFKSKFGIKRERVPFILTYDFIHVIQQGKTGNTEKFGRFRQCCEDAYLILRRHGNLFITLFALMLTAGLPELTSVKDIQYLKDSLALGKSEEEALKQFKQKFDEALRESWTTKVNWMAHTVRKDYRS
Sequence of PI3K beta (P27986 whole entry partner, species assumed, the tested form may be a part): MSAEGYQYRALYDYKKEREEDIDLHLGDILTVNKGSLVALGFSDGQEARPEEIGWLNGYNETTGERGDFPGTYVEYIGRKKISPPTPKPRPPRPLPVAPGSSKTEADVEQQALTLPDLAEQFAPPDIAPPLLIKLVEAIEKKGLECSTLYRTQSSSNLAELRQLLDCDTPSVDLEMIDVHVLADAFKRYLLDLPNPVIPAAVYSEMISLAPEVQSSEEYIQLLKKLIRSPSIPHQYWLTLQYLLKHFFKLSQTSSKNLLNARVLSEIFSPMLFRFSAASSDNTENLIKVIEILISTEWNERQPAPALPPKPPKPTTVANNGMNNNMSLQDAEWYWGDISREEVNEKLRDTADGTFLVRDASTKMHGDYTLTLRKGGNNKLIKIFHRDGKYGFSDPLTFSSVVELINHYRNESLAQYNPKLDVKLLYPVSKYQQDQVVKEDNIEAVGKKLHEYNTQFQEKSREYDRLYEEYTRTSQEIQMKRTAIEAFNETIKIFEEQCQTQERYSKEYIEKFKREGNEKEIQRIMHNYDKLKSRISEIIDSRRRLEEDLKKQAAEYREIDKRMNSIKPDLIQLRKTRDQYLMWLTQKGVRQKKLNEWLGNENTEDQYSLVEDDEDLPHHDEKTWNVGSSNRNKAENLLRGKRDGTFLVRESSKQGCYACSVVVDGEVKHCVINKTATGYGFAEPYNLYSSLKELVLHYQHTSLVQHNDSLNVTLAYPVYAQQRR
Description: In a final reaction volume of 20 μL, the test PI3K is incubated in assay buffer containing 10 μM phosphatidylinositol-4,5-bisphosphate and MgATP. The reaction is initiated by the addition of the MgATP mix. After incubation for 30 minutes at room temperature, the reaction is stopped by the addition of 5 μL of stop solution containing EDTA and biotinylated phosphatidylinositol-3,4,5-trisphosphate. Finally, 5 μL of detection buffer is added (containing europium-labelled anti-GST monoclonal antibody, GST-tagged GRP1 PH domain and streptavidin-allophycocyanin). The test plate is then read in time-resolved fluorescence mode and the homogenous time-resolved fluorescence (HTRF) signal is determined according to the formula HTRF=10000×(Em665 nm/Em620 nm).

c-RAF (h) = c-RAF (h) (Homo sapiens, UniProt P04049); experiment: c-RAF kinase activity assay; type: biochemical
Description: as §1, with “c-RAF” for “c-SRC”, “25” for “8”, “Tris” for “MOPS”, “7.5, 0.02” for “7.0, 0.2”, “EGTA, 0.66 mg/mL myelin basic protein,” for “EDTA, 250 μM KVEKIGEGTYGVVYK (SEQ ID No. 19) (Cdc2 peptide),”

mTOR = mTOR (Homo sapiens, UniProt P42345); experiment: mTOR activity; type: biochemical; details: 20 μM, data not shown
FAK = FAK (Homo sapiens, UniProt Q05397); experiment: FAK activity; type: biochemical; details: 20 μM, data not shown
Sequence of FAK (Q05397 whole entry, species assumed): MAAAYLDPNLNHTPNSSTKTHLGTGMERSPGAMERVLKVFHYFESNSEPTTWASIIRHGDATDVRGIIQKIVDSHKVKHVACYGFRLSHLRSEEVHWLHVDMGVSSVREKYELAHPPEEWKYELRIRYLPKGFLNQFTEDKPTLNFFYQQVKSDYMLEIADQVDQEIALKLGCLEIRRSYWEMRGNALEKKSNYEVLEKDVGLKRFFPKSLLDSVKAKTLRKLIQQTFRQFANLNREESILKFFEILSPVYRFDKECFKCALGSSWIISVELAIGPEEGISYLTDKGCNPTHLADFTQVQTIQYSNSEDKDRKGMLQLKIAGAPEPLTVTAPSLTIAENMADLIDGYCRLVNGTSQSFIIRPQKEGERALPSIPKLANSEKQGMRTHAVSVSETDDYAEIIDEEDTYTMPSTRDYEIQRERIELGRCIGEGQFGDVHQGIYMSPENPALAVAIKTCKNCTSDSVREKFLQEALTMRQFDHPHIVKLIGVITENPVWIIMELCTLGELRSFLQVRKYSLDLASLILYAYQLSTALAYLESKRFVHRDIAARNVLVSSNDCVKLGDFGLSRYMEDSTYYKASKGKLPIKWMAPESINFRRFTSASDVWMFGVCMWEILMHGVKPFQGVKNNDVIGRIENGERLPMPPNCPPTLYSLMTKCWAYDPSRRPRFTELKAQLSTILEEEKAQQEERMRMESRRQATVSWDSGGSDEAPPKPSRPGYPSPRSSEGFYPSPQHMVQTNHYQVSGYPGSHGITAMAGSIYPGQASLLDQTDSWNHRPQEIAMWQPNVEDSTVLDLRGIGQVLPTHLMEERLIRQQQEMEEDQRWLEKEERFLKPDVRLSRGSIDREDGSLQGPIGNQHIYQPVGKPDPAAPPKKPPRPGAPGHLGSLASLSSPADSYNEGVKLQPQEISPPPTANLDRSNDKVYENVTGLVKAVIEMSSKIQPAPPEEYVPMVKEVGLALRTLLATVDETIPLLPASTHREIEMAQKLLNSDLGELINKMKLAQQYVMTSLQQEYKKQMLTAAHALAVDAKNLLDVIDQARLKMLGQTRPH

kinases listed Table 2 = experiment: Kinase dose response study (kinases listed Table 2); type: biochemical; details: range over all kinases of Table 2; read-out: IC50 percentage inhibition of activity for all the kinases
Description: In a dose response study, the inhibition of the activity of the kinases listed Table 2 at increasing concentrations of dendrimer Dend 10-10(4)DP (see Example 2.3) was assessed employing the treatment protocols described in Examples 1 to 3. As shown in the table, inhibition of kinase activity was obtained by the dendrimer at all the concentrations tested. The IC50 percentage inhibition of activity for all the kinases was in the range of from 0.25-2.0 μM. The results shown in Table 2 are percentage inhibition relative to controls. Comparative dose results for 1 μM dendrimer Dend 10-10(4) are also shown.

[1] = system: HT-29 human colon cancer cells; experiment: Apoptosis assay (FITC Annexin V / PI, FACS); type: cell-based; details: 10 μM, 4 hours; FIG. 11
Description: The cells were harvested by trypsinisation, washed twice in HBSS and counted counted using Trypan Blue staining. The cells were then re-suspended in the appropriate culture medium to a concentration of 1×10^6 cells/mL. […] The cells were allowed to attach to the plate for 1 h. […] Cells were then harvested by trypsinisation, washed twice in cold phosphate buffered saline (PBS) and then resuspended in 1× binding buffer. 100 μL of the cell suspensions containing 1×10^5 cells were transferred to a 5 mL plastic tube. […] Three controls were also analysed: unstained cells, cells stained only with Annexin V and cells stained only with PI. The data was presented as the percentage of cells being either Annexin V positive only (excluding PI positive cells), PI positive (total) or Annexin V and PI positive (double stain).

[2] = system: MKN45 gastric carcinoma cells; experiment: MTT growth/proliferation, MKN45 cells; type: cell-based; details: 48 hours
Description: (§2) In this study, the cells were incubated in the presence of the dendrimer for 48 hours. Cell lines were maintained at 37° C. in a humid atmosphere containing 5% CO2. Cells were passaged at pre-confluent densities using a solution containing 0.05% trypsin and 0.5 mM EDTA (Invitrogen).

[3] = system: DU145 prostate cancer cells; experiment: MTT growth/proliferation, DU145 cells; type: cell-based; details: 48 hours
Description: as §2

HL60 leukemic cells = experiment: MTT proliferation, HL60 cells; type: cell-based; details: MTT assay, data not shown; read-out: IC50 inhibition of proliferation of HL60 leukemic cells

“Dend 10-10(4) whose RSKAKNPLYR peptides are entirely D-amino acids and pegylated with two ethylene glycol units [Dend 10-10(4)DP]” was tested, and the “inhibition of c-Src activity compared to peptide RSKAKNPLYR alone” value (c-SRC (h)) was “no increase in the inhibition of c-Src activity”, the “% Kinase inhibition ERK2” value (human ERK2; 20 μM, relative to control) was 37% and the “PI3K beta % inhibition” value (PI3K beta; 20 μM final concentration) was “approx. 92%”. The “Percentage (%) kinase inhibition PI3K P110β” value (PI3K beta; dendrimer conc. 1 μM) was 39%, the “Percentage (%) kinase inhibition PI3K P110β” value (PI3K beta; dendrimer conc. 2 μM) was 53% and the “Percentage (%) kinase inhibition PI3K P110β” value (PI3K beta; dendrimer conc. 250 nm) was 28%. The “Percentage (%) kinase inhibition PI3K P110β” value (PI3K beta; dendrimer conc. 500 nm) was 34%, the “% Kinase inhibition c-RAF” value (c-RAF (h); 20 μM, relative to control) was 93% and the “Percentage (%) kinase inhibition c-RAF” value (c-RAF (h); dendrimer conc. 1 μM) was 79%. For the same molecule, the “Percentage (%) kinase inhibition c-RAF” value (c-RAF (h); dendrimer conc. 2 μM) was 81%, the “Percentage (%) kinase inhibition c-RAF” value (c-RAF (h); dendrimer conc. 250 nm) was 64% and the “Percentage (%) kinase inhibition c-RAF” value (c-RAF (h); dendrimer conc. 500 nm) was 74%. The “effect on activity of mTOR” value (mTOR) was “without any effect”, the “effect on activity of FAK” value (FAK) was “without any effect” and the pIC50 (kinases listed Table 2) was 5.70 to 6.60. For the same molecule, the “apoptosis in HT-29 cells” value [1] was “substantial level of apoptosis”, the “inhibition of growth/proliferation of MKN45 cells” value [2] was “inhibited growth/proliferation” and the “inhibition of growth/proliferation of DU145 cells” value [3] was “inhibited growth/proliferation”. For the same molecule, the pIC50 (HL60 leukemic cells) was 5.70.

CC(C)C[C@H](NC(=O)[C@@H]1CCCN1C(=O)[C@H](CC(N)=O)NC(=O)[C@H](CCCCN)NC(=O)[C@H](C)NC(=O)[C@H](CCCCN)NC(=O)[C@H](CO)NC(=O)[C@@H](N)CCCNC(=N)N)C(=O)N[C@@H](Cc1ccc(O)cc1)C(=O)N[C@@H](CCCNC(=N)N)C(=O)NCCCC[C@H](NC(=O)[C@H](CCCCNC(=O)[C@H](CCCCNC(=O)[C@H](CCCNC(=N)N)NC(=O)[C@H](Cc1ccc(O)cc1)NC(=O)[C@H](CC(C)C)NC(=O)[C@@H]1CCCN1C(=O)[C@H](CC(N)=O)NC(=O)[C@H](CCCCN)NC(=O)[C@H](C)NC(=O)[C@H](CCCCN)NC(=O)[C@H](CO)NC(=O)[C@@H](N)CCCNC(=N)N)NC(=O)[C@H](CCCNC(=N)N)NC(=O)[C@H](Cc1ccc(O)cc1)NC(=O)[C@H](CC(C)C)NC(=O)[C@@H]1CCCN1C(=O)[C@H](CC(N)=O)NC(=O)[C@H](CCCCN)NC(=O)[C@H](C)NC(=O)[C@H](CCCCN)NC(=O)[C@H](CO)NC(=O)[C@@H](N)CCCNC(=N)N)NC(=O)[C@H](CCCCNC(=O)[C@H](CCCNC(=N)N)NC(=O)[C@H](Cc1ccc(O)cc1)NC(=O)[C@H](CC(C)C)NC(=O)[C@@H]1CCCN1C(=O)[C@H](CC(N)=O)NC(=O)[C@H](CCCCN)NC(=O)[C@H](C)NC(=O)[C@H](CCCCN)NC(=O)[C@H](CO)NC(=O)[C@@H](N)CCCNC(=N)N)NC(=O)[C@H](CCCNC(=N)N)NC(=O)[C@H](Cc1ccc(O)cc1)NC(=O)[C@H](CC(C)C)NC(=O)[C@@H]1CCCN1C(=O)[C@H](CC(N)=O)NC(=O)[C@H](CCCCN)NC(=O)[C@H](C)NC(=O)[C@H](CCCCN)NC(=O)[C@H](CO)NC(=O)[C@@H](N)CCCNC(=N)N)C(=O)NCCCC[C@H](NC(=O)[C@H](CCCCNC(=O)[C@H](CCCNC(=N)N)NC(=O)[C@H](Cc1ccc(O)cc1)NC(=O)[C@H](CC(C)C)NC(=O)[C@@H]1CCCN1C(=O)[C@H](CC(N)=O)NC(=O)[C@H](CCCCN)NC(=O)[C@H](C)NC(=O)[C@H](CCCCN)NC(=O)[C@H](CO)NC(=O)[C@@H](N)CCCNC(=N)N)NC(=O)[C@H](CCCCNC(=O)[C@H](CCCCNC(=O)[C@H](CCCNC(=N)N)NC(=O)[C@H](Cc1ccc(O)cc1)NC(=O)[C@H](CC(C)C)NC(=O)[C@@H]1CCCN1C(=O)[C@H](CC(N)=O)NC(=O)[C@H](CCCCN)NC(=O)[C@H](C)NC(=O)[C@H](CCCCN)NC(=O)[C@H](CO)NC(=O)[C@@H](N)CCCNC(=N)N)NC(=O)[C@H](CCCNC(=N)N)NC(=O)[C@H](Cc1ccc(O)cc1)NC(=O)[C@H](CC(C)C)NC(=O)[C@@H]1CCCN1C(=O)[C@H](CC(N)=O)NC(=O)[C@H](CCCCN)NC(=O)[C@H](C)NC(=O)[C@H](CCCCN)NC(=O)[C@H](CO)NC(=O)[C@@H](N)CCCNC(=N)N)NC(=O)[C@H](CCCCNC(=O)[C@H](CCCNC(=N)N)NC(=O)[C@H](Cc1ccc(O)cc1)NC(=O)[C@H](CC(C)C)NC(=O)[C@@H]1CCCN1C(=O)[C@H](CC(N)=O)NC(=O)[C@H](CCCCN)NC(=O)[C@H](C)NC(=O)[C@H](CCCCN)NC(=O)[C@H](CO)NC(=O)[C@@H](N)CCCNC(=N)N)NC(=O)[C@H](CCCNC(=N)N)NC(=O)[C@H](Cc1ccc(O)cc1)NC(=O)[C@H](CC(C)C)NC(=O)[C@@H]1CCCN1C(=O)[C@H](CC(N)=O)NC(=O)[C@H](CCCCN)NC(=O)[C@H](C)NC(=O)[C@H](CCCCN)NC(=O)[C@H](CO)NC(=O)[C@@H](N)CCCNC(=N)N)C(=O)NCCC(N)=O [Dend 10-10(4)] was tested, and the remaining activity at 50 µM (human ERK2; final concentration 50 μM, read-out: ERK2 % activity relative to control) was 47%, the inhibition at 1 µM (PI3K beta; dendrimer conc. 1 μM, read-out: Percentage (%) kinase inhibition PI3K P110β) was 61% and the “PIK3 beta % activity relative to control” value (PI3K beta; final concentration 50 μM) was 83%. The inhibition at 1 µM (c-RAF (h); dendrimer conc. 1 μM, read-out: Percentage (%) kinase inhibition c-RAF) was 71%.
